Data published in patent publication US20220160712A1, “METHODS OF TREATING RHEUMATOID ARTHRITIS AND FOR PREDICTING THE RESPONSE TO METHOTREXATE” (CHAN ZUCKERBERG BIOHUB, INC., priority 2020, published 2022).

System: C. asparagiforme
Test: RNA-seq after MTX treatment, with time course
Format: cell-based, Clostridium asparagiforme
Settings: MTX 100 μg/ml
Protocol: Genomes were obtained from NCBI's GenBank Assembly database. Culture media was composed of BHI+and allowed to equilibrate in an anaerobic environment prior to use. Briefly, bacteria were cultured in BHI+at 37° C. in an anaerobic chamber. Cultures for each isolate were grown to mid-exponential (achieving an OD600˜0.5), aliquoted into triplicates, treated for 30 minutes with either DMSO or MTX 100 μg/ml, and then removed from the anaerobic chamber. The mid-exponential time point was selected to facilitate comparisons across isolates, as has been done by others (O'Rourke, A., et al. (2020), Antimicrob Agents Chemother 64), since lag and stationary phases would present challenges in term of biomass (lag phase with low biomass) and differing physiology (i.e., sporulation among some isolates and not others). For C. asparagiforme, cultures were incubated for 4 and 20 hours as well and profiled. Cultures were centrifuged at 2000 rpm for 10 minutes at 4° C. to facilitate removal of supernatant, and the remaining bacterial pellet was flash-frozen in liquid nitrogen.
Each bacterial pellet was incubated with 1 ml of Tri reagent (Sigma Aldrich, catalog #: T9424) at room temperature for 10 minutes. The cell suspension was transferred into Lysing Matrix E tubes (MP Biomedicals, 116914050), and homogenized in a bead-beater (Mini-Beadbeater-24, BioSpec) for 5 minutes at room temperature. The sample was incubated with 200 μL of chloroform at room temperature for 10 minutes, followed by centrifugation at 16,000×g for 15 minutes at 4° C. Next, 500 μL of the upper aqueous phase was transferred into a new tube and 500 μL of 100% ethanol was added. To isolate RNA, PureLink RNA Mini Kit (Life Technologies, catalog #: 12183025) was used. This mixture was transferred onto a PureLink spin column and spun at >12,000×g for 30 seconds. The column was washed with 350 μl of wash buffer I as described in the PureLink manual. The column was incubated with 80 μl of PureLink DNase (Life Technologies, catalog #: 12185010) at room temperature for 15 minutes, and washed with 350 μl of wash buffer I. The column was washed with wash buffer II twice as described in the PureLink manual. Total RNA was recovered in 50 μl of RNAase-free water. A second round of off-column DNAse treatment was undertaken. The RNA was incubated with 6 μl of TURBO DNAse (Ambion, ThermoFisher, catalog #: AM2238) at 37° C. for 30 minutes. To stop the reaction, 56 μl of lysis buffer from the PureLink kit and 56 μl of 100% ethanol was added to the sample and vortexed. This suspension was transferred onto a PureLink column and washed once with 350 μl of wash buffer I and twice with 500 μl of wash buffer II. The RNA was recovered in 30 μl of RNAse-free water.
Total RNA was subjected to rRNA depletion using Ribo-Zero Bacterial rRNA Depletion (Illumina, catalog #: MRZB12424), following the manufacturer's protocol. […] For each sample, fastq files are available in NCBI's Sequence Read Archive (SRA), accession number PRJNA656577.
Reads were trimmed using Trimmomatic (v0.32) (Bolger, A. M., et al., (2014), Bioinformatics 30, 2114-2120), and ribosomal reads were removed using SortMeRNA (v2.1) (Kopylova, E., et al., (2012), Bioinformatics 28, 3211-3217). Reads were mapped to reference genomes using Bowtie2 (Langmead, B., and Salzberg, S. L. (2012), Nat Methods 9, 357-359) using the following options: -q, —met file, —end-to-end, —sensitive. […]

Question: How did the “number of pathways enriched” value turn out when `CN(Cc1cnc2nc(N)nc(N)c2n1)c1ccc(C(=O)N[C@@H](CCC(=O)O)C(=O)O)cc1` [MTX, methotrexate] was run?
Answer: The value was 23 pathways.

Question: What about the “number of differentially expressed genes” value (30 minutes, padj<0.2, DESeq) of the same compound?
Answer: The value was 468 genes.

Question: And the “number of transcripts differentially expressed at all three timepoints” value (30 minutes, 4 and 20 hours, padj<0.2, DESeq)?
Answer: Its value is 41.

Question: What about the “DHFR or AICAR transformylase expression” value (time course) of the same compound?
Answer: Its value is “no significant differences”.

Question: And the “adenylosuccinate synthase (ADSS) expression” value (time course)?
Answer: Its value is “significantly upregulated”.
